One substance from patent US6610791B2, “Photosensitive compound and photosensitive resin” (Toyo Gosai Kogyo Co., Ltd., priority 2000, dated 2003) can be followed below.

A short description of the data set: Measurement of solubility in water at 25° C. It is filed as physicochemical. On the procedure:
Measurement of [5-(sodium 4-azidobenzylidene-2-sulfonate)-3-(N-(4,4′-dimethoxybutyl)carbamoyl)methyl]-rhodanine in Terms of Solubility in Water and Molar Absorption Coefficient
Measurement of solubility in water at 25° C. was carried out for the compound obtained in Example 3 or 6, and for the compound, which was obtained through the method of Example 2 described in Japanese Patent Application Laid-Open (kokai) No. 10-310769, represented by the following formula. [drawing 17]
Further, UV spectra were measured for the two compounds in water serving as a solvent so as to measure the molar absorption coefficient ε at a wavelength of maximum absorption.

Take “[5-(sodium 4-azidobenzylidene-2-sulfonate)-3-(N-(4,4′-dimethoxybutyl)carbamoyl)methyl]rhodanine”: for the setting “in 100 g of water”, the solubility in water stood at 5.4 g. Besides, where the note is “water, ratio of the invention compound to the reference compound”, the “solubility of the former compound relative to the latter (reference) compound” value is on record as “approximately five”.
